Reference: PubChem BioAssay (NCI)
Several values for one entry are separate records, joined by “and”; a condition that tells them apart may be missing. Identical values can stand only once.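 1) Cells in 96-well plates. 2) Compound, 48 h, 5 concentrations. 3) Linear interpolation between surrounding doses. 4) Unreached endpoint = highest concentration. GI50 is the concentration that inhibits growth by half. Definition used: TGI = concentration required for complete inhibition of growth.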

Experiments:
Assay in all cases: NCI anticancer screen, dose series, 48 h
MDA-MB-468 breast = tested on: MDA-MB-468 breast
IGROV1 ovarian = tested on: IGROV1 ovarian
HCT-116 colon = tested on: HCT-116 colon
MOLT-4 leukemia = tested on: MOLT-4 leukemia
CAKI-1 renal = tested on: CAKI-1 renal
OVCAR-5 ovarian = tested on: OVCAR-5 ovarian
COLO 205 colon = tested on: COLO 205 colon
SNB-19 CNS = tested on: SNB-19 CNS
BT-549 breast = tested on: BT-549 breast
SNB-75 CNS = tested on: SNB-75 CNS
HOP-62 NSCLC = tested on: HOP-62 NSCLC
HS 578T breast = tested on: HS 578T breast
A498 renal = tested on: A498 renal
NCI-H226 lung = tested on: NCI-H226 lung
SF-539 CNS = tested on: SF-539 CNS
CCRF-CEM leukemia = tested on: CCRF-CEM leukemia
U251 CNS = tested on: U251 CNS
HCC-2998 colon = tested on: HCC-2998 colon
TK-10 renal = tested on: TK-10 renal
SK-MEL-28 melanoma = tested on: SK-MEL-28 melanoma
SW-620 colon = tested on: SW-620 colon
OVCAR-3 ovarian = tested on: OVCAR-3 ovarian
SK-OV-3 ovarian = tested on: SK-OV-3 ovarian
MDA-MB-231 breast = tested on: MDA-MB-231 breast
DU-145 prostate = tested on: DU-145 prostate
MDA-MB-435 = tested on: MDA-MB-435
RXF 393 renal = tested on: RXF 393 renal

Question: `Nc1ncnc2occ(-c3ccc(NC(=O)Nc4cc(C(F)(F)F)ccc4F)cc3)c12` was tested. Which GI50 (MDA-MB-468 breast) did it give?
Answer: 4.46 µM and 3.9 µM

Question: And the TGI (MDA-MB-468 breast)?
Answer: 12.4 µM and 11.8 µM

Question: Which results are given for `O=C1NC(=N[C@@H]2C[C@H]2c2ccccc2)S/C1=C\c1ccc2ncccc2c1`?
Answer: GI50 (MDA-MB-468 breast): 0.872 µM; TGI (MDA-MB-468 breast): 5.85 µM

Question: What does the source list for `COc1ccc(-c2nc(Nc3ccc(F)cc3)nc(Nc3ccc4c(c3)nc(C)n4Cc3ccccc3)n2)cc1`?
Answer: GI50 (MDA-MB-468 breast): 2.27 µM; TGI (MDA-MB-468 breast): 7.22 µM

Question: Which GI50 (MDA-MB-468 breast) does the source give for `CCOC(=O)Nc1ccc2c3c(cccc13)-c1ccccc1-2` here?
Answer: 1.37 µM

Question: What about the TGI (MDA-MB-468 breast) of the same compound?
Answer: 5.21 µM

Question: With `CN1CCN(Cc2ccc(NC(=O)c3cncc(C#Cc4cnc5ccc(OCC6COC6)nn45)c3)cc2C(F)(F)F)CC1` as the compound, how does the GI50 (MDA-MB-468 breast) read?
Answer: 0.196 µM

Question: What about the TGI (MDA-MB-468 breast) of the same compound?
Answer: 0.726 µM

Question: How did the GI50 (MDA-MB-468 breast) turn out when `NNC(=S)N/N=C/c1ccccn1` was run?
Answer: 1.94 µM

Question: And the TGI (MDA-MB-468 breast)?
Answer: 5.59 µM

Question: With `Cc1cc(C)c2c(=O)cc(-c3ccccc3)[nH]c2c1` as the compound, how does the GI50 (MDA-MB-468 breast) read?
Answer: 3.79 µM

Question: What about the TGI (MDA-MB-468 breast) of the same compound?
Answer: 25.5 µM

Question: `C#CCN(C)CCCOc1ccc(NCc2ccc(C(=O)NO)cc2)cc1Cl` was tested. Which GI50 (MDA-MB-468 breast) did it give?
Answer: 1.7 µM

Question: And the TGI (MDA-MB-468 breast)?
Answer: 8.14 µM

Question: What does the source list for `NS(=O)(=O)c1ccc(N=Nc2c(O)[nH]c3cccc(CCc4ccncc4)c23)cc1`?
Answer: GI50 (MDA-MB-468 breast): > 25 µM; TGI (MDA-MB-468 breast): > 25 µM

Question: Which results are given for `CN1CCc2c(sc3ncnc(N/N=C/c4cn(-c5ccccc5)nc4-c4ccc(Br)cc4)c23)C1`?
Answer: GI50 (IGROV1 ovarian): 0.322 µM; TGI (IGROV1 ovarian): > 100 µM; GI50 (HCT-116 colon): 0.102 µM; TGI (HCT-116 colon): > 100 µM; GI50 (MOLT-4 leukemia): 0.261 µM; TGI (MOLT-4 leukemia): > 100 µM; GI50 (CAKI-1 renal): > 100 µM; TGI (CAKI-1 renal): > 100 µM; GI50 (OVCAR-5 ovarian): > 100 µM; TGI (OVCAR-5 ovarian): > 100 µM; GI50 (COLO 205 colon): 0.332 µM; TGI (COLO 205 colon): > 100 µM; GI50 (SNB-19 CNS): 20.3 µM; TGI (SNB-19 CNS): > 100 µM; GI50 (BT-549 breast): > 100 µM; TGI (BT-549 breast): > 100 µM; GI50 (SNB-75 CNS): 5.88 µM; TGI (SNB-75 CNS): > 100 µM; GI50 (HOP-62 NSCLC): 0.399 µM; TGI (HOP-62 NSCLC): > 100 µM; GI50 (HS 578T breast): 16.4 µM; TGI (HS 578T breast): > 100 µM; GI50 (A498 renal): > 100 µM; TGI (A498 renal): > 100 µM; GI50 (NCI-H226 lung): > 100 µM; TGI (NCI-H226 lung): > 100 µM; GI50 (SF-539 CNS): 0.282 µM; TGI (SF-539 CNS): > 100 µM; GI50 (CCRF-CEM leukemia): 0.196 µM; TGI (CCRF-CEM leukemia): > 100 µM; GI50 (U251 CNS): 0.636 µM; TGI (U251 CNS): > 100 µM; GI50 (HCC-2998 colon): 0.285 µM; TGI (HCC-2998 colon): > 100 µM; GI50 (TK-10 renal): > 100 µM; TGI (TK-10 renal): > 100 µM; GI50 (SK-MEL-28 melanoma): > 100 µM; TGI (SK-MEL-28 melanoma): > 100 µM; GI50 (SW-620 colon): 0.352 µM; TGI (SW-620 colon): > 100 µM; GI50 (OVCAR-3 ovarian): 0.0375 µM; TGI (OVCAR-3 ovarian): 0.304 µM; GI50 (SK-OV-3 ovarian): > 100 µM; TGI (SK-OV-3 ovarian): > 100 µM; GI50 (MDA-MB-231 breast): 0.362 µM; TGI (MDA-MB-231 breast): > 100 µM; GI50 (DU-145 prostate): > 100 µM; TGI (DU-145 prostate): > 100 µM; GI50 (MDA-MB-435): > 100 µM; TGI (MDA-MB-435): > 100 µM; GI50 (RXF 393 renal): 18.3 µM; TGI (RXF 393 renal): > 80.7 µM
